#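 The compound was tested at five concentrations on cells cultured in 96-well plates, with a 48-hour exposure period. GI50: concentration for 50% inhibition of growth. The concentration for full growth arrest is given as TGI.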
# Experiments:
# Assay in all cases: NCI tumour cell line growth inhibition, 48 h
# [1] = test system: SR leukemia
# [2] = test system: COLO 205 colon
# [3] = test system: HS 578T breast
# [4] = test system: OVCAR-4 ovarian
# [5] = test system: NCI-H23 lung
# [6] = test system: NCI-H522 lung
# [7] = test system: SW-620 colon
# [8] = test system: HT29 colon
# [9] = test system: NCI-H226 lung
# [10] = test system: LOX IMVI melanoma
structure (smiles),measurement,setting,value
N#C/C(=C/NC(=S)Nc1ccc(S(N)(=O)=O)cc1)C(N)=O,TGI,[1],> 100 µM
same,TGI,[2],> 100 µM
same,TGI,[3],> 100 µM
same,TGI,[4],> 100 µM
same,TGI,[5],> 100 µM
same,TGI,[6],> 100 µM
same,TGI,[7],> 100 µM
same,TGI,[8],> 100 µM
COc1cc(/C=C/C(=O)C(C)(C)C)cc(OC)c1OC,TGI,[1],> 100 µM
same,TGI,[9],97.9 µM
same,TGI,[2],> 100 µM
same,TGI,[10],44 µM
same,TGI,[4],> 100 µM
same,TGI,[5],94.4 µM
same,TGI,[6],> 100 µM
same,TGI,[7],81.2 µM
same,TGI,[8],> 100 µM
C[N+]12C=CC=C1C(N1CCCC1)c1sc(-c3ccc(Cl)cc3)cc12 (configuration not stated),TGI,[1],50.1 µM
same,TGI,[9],35.3 µM
same,TGI,[2],31.6 µM
same,TGI,[3],50.9 µM
same,TGI,[10],29.5 µM
same,TGI,[4],33.4 µM
same,TGI,[6],27 µM
same,TGI,[7],29.9 µM
same,TGI,[8],34.3 µM
COc1ccc2[nH]c3c(C)c4ccnc(NCCCN(C)CCCNC(=O)NCCCN(C)CCCNc5nccc6c(C)c7[nH]c8ccc(OC)cc8c7c(C)c56)c4c(C)c3c2c1,TGI,[2],0.858 µM
same,TGI,[3],> 50 µM
same,TGI,[4],7.83 µM
same,TGI,[5],> 19 µM
same,TGI,[7],1.3 µM
same,TGI,[8],1.19 µM
COc1cc2c(oc(=O)c3c4oc([Si](C)(C)C)cc4cc(OC)c23)c2cccc(O)c12,TGI,[1],> 100 µM
same,TGI,[9],> 100 µM
same,TGI,[2],> 100 µM
same,TGI,[10],> 100 µM
same,TGI,[4],> 100 µM
same,TGI,[5],> 100 µM
same,TGI,[6],> 100 µM
same,TGI,[7],> 100 µM
same,TGI,[8],> 100 µM
COc1cc2c(cc1C)NC(=O)/C2=C/c1c(Cl)n(C)c2ccccc12,TGI,[9],27.2 µM
same,TGI,[2],31.2 µM
same,TGI,[3],12.8 µM
same,TGI,[10],22.7 µM
same,TGI,[4],25 µM
same,TGI,[5],21.6 µM
same,TGI,[7],> 100 µM
same,TGI,[8],22.5 µM
CCN1CCc2sc3[nH]c(=S)n(C)c(=O)c3c2C1,TGI,[9],> 100 µM
same,TGI,[2],> 100 µM
same,TGI,[3],> 100 µM
same,TGI,[10],> 100 µM
same,TGI,[4],> 100 µM
same,TGI,[5],> 100 µM
same,TGI,[6],> 100 µM
same,TGI,[7],> 100 µM
same,TGI,[8],> 100 µM
COC(=O)C(I(OS(=O)(=O)c1ccc(C)cc1)c1ccccc1)=P(c1ccccc1)(c1ccccc1)c1ccccc1,TGI,[1],49.7 µM
same,TGI,[9],23.2 µM
same,TGI,[2],13.1 µM
same,TGI,[3],85.1 µM
same,TGI,[4],27 µM
same,TGI,[5],34.1 µM
same,TGI,[6],27.7 µM
same,TGI,[8],42.1 µM
CC(=O)NC(Cc1ccccc1)C(=S)N1CCCC1 (configuration not stated),TGI,[9],> 100 µM
same,TGI,[2],> 100 µM
same,TGI,[10],> 100 µM
same,TGI,[4],> 100 µM
same,TGI,[5],> 100 µM
same,TGI,[6],> 100 µM
same,TGI,[7],> 100 µM
same,TGI,[8],> 100 µM
c1ccc(C2(c3cc4ccccc4[nH]3)OCCO2)cc1,TGI,[1],> 100 µM
same,TGI,[9],> 100 µM
same,TGI,[2],65.2 µM
same,TGI,[10],> 100 µM
same,TGI,[4],> 100 µM
same,TGI,[5],> 100 µM
same,TGI,[7],> 100 µM
same,TGI,[8],> 100 µM
O=C(CCc1nnc2s/c(=C\c3ccc(Cl)cc3Cl)c(=O)n12)Nc1cc(Cl)c(Cl)cc1Cl,GI50,[1],> 100 µM
same,TGI,[1],> 100 µM
same,GI50,[9],> 100 µM
same,TGI,[9],> 100 µM
same,GI50,[2],> 100 µM
same,TGI,[2],> 100 µM
same,GI50,[4],> 100 µM
same,TGI,[4],> 100 µM
same,GI50,[5],> 100 µM
same,TGI,[5],> 100 µM
same,TGI,[6],> 100 µM
same,GI50,[7],> 100 µM
same,TGI,[7],> 100 µM
same,GI50,[8],> 100 µM
same,TGI,[8],> 100 µM
Cc1ccc(CCNC(=S)SCC(NC(=O)CCC(N)C(=O)O)C(=O)NCC(=O)O)cc1 (configuration not stated),TGI,[1],5.91 µM
same,TGI,[9],4.47 µM
same,TGI,[2],6.63 µM
same,TGI,[10],1.55 µM
same,TGI,[4],7.41 µM
same,TGI,[5],9.99 µM
same,TGI,[6],1.45 µM
same,TGI,[7],3.01 µM
same,TGI,[8],7.01 µM
COc1nc(NC2OCC(OC(C)=O)C(OC(C)=O)C2OC(C)=O)c(N=C(C)C(C)=O)c(=O)n1C (configuration not stated),TGI,[1],> 100 µM
same,TGI,[9],> 100 µM
same,TGI,[2],> 100 µM
same,TGI,[10],> 100 µM
same,TGI,[4],> 100 µM
same,TGI,[5],> 100 µM
same,TGI,[7],> 100 µM
same,TGI,[8],> 100 µM
CC(C)(C)OC(=O)NCCNC(=O)OCc1ccccc1,TGI,[1],> 100 µM
same,TGI,[9],> 100 µM
same,TGI,[2],> 100 µM
same,TGI,[3],> 100 µM
same,TGI,[5],> 100 µM
same,TGI,[6],> 100 µM
same,TGI,[7],> 100 µM
same,TGI,[8],> 100 µM
COC(=O)c1ccc2[nH]c3c(c2c1)CC(=O)Nc1ccccc1-3,TGI,[1],25 µM
same,TGI,[9],> 100 µM
same,TGI,[2],> 100 µM
same,TGI,[3],> 100 µM
same,TGI,[10],> 100 µM
same,TGI,[4],40.2 µM
same,TGI,[6],> 100 µM
same,TGI,[7],> 100 µM
same,TGI,[8],> 100 µM
Cc1[nH]c(=O)nc2c1C(=O)N(C(C)C)C(NC(C)C)S2 (configuration not stated),TGI,[9],> 100 µM
same,TGI,[2],> 100 µM
same,TGI,[10],> 100 µM
same,TGI,[4],> 100 µM
same,TGI,[5],> 100 µM
same,TGI,[6],> 100 µM
same,TGI,[7],> 100 µM
same,TGI,[8],> 100 µM
Cc1c2cccc-2c(N(C)C)cc2c1[nH]c1ccccc12,TGI,[1],3.98 µM
same,TGI,[9],21.8 µM
same,TGI,[2],3.42 µM
same,TGI,[3],13.8 µM
same,TGI,[10],15.3 µM
same,TGI,[5],32.3 µM
same,TGI,[7],18.9 µM
same,TGI,[8],18.2 µM
COC[C@@H](N=Cc1ccc(OC)cc1)C(C)C,TGI,[1],> 100 µM
same,TGI,[2],> 100 µM
same,TGI,[3],> 100 µM
same,TGI,[10],> 100 µM
same,TGI,[4],> 100 µM
same,TGI,[5],> 100 µM
same,TGI,[6],> 100 µM
same,TGI,[7],> 100 µM
same,TGI,[8],> 100 µM
O=C(N/N=C/c1cc(-c2ccccc2Cl)c(-c2ccccc2Cl)o1)c1ccncc1,TGI,[9],> 100 µM
same,TGI,[2],> 100 µM
same,TGI,[10],> 100 µM
same,TGI,[4],> 100 µM
same,TGI,[5],> 100 µM
same,TGI,[6],> 100 µM
same,TGI,[7],> 100 µM
same,TGI,[8],> 100 µM
O=c1[nH]c2cccccc-2c1-c1nc2ccccc2[nH]1,TGI,[1],> 100 µM
same,TGI,[9],35.6 µM
same,TGI,[2],> 100 µM
same,TGI,[10],> 100 µM
same,TGI,[4],51.9 µM
same,TGI,[5],> 100 µM
same,TGI,[6],42.3 µM
same,TGI,[7],> 100 µM
same,TGI,[8],> 100 µM
Cc1ccc(-c2c(C#N)c(O)n(NS(=O)(=O)c3ccccc3)c(=O)c2C#N)cc1,TGI,[9],> 100 µM
same,TGI,[2],> 100 µM
same,TGI,[10],> 100 µM
same,TGI,[4],> 100 µM
same,TGI,[6],> 100 µM
same,TGI,[7],> 100 µM
same,TGI,[8],> 100 µM
COc1ccccc1C1C(Cl)C(=O)N1NC(=O)Cc1ccccc1 (configuration not stated),TGI,[1],> 100 µM
same,TGI,[9],> 100 µM
same,TGI,[2],> 100 µM
same,TGI,[10],> 100 µM
same,TGI,[4],> 100 µM
same,TGI,[5],> 100 µM
same,TGI,[6],> 100 µM
same,TGI,[7],> 100 µM
same,TGI,[8],> 100 µM
COc1ccc(/C=N/NC(=O)c2ccccc2Nc2ccccc2C(=O)N/N=C/c2ccc(OC)c(OC)c2)cc1OC,TGI,[1],> 100 µM
same,TGI,[9],> 100 µM
same,TGI,[2],> 100 µM
same,TGI,[3],> 100 µM
same,TGI,[4],> 100 µM
same,TGI,[5],> 100 µM
same,TGI,[7],> 100 µM
same,TGI,[8],> 100 µM

# Source: PubChem BioAssay (NCI)
